Data as given in patent US20110224210A1, “NOVEL BIS-AMIDES AS ANTI-MALARIAL AGENTS” (priority 2008, published 2011).

What follows are molecules tested on P. falciparum K1 (strain resistant to chloroquine and pyrimethamine), erythrocytic stages (assay: Plasmodium falciparum in vitro assay, [3H] hypoxanthine incorporation). Details: P. falciparum strain K1; [3H] hypoxanthine incorporation; read-out: IC50 (nM) on K1.
Format: cell-based
Experimental: In Vitro Antimalarial Activity: Plasmodium falciparum In Vitro Assay
In vitro activity against erythrocytic stages of P. falciparum is determined using a [^3H] hypoxanthine incorporation assay. One strain resistant to chloroquine and pyrimethamine (P. falciparum K1) is used in the assays, and all test compounds are compared for activity with the standard drugs chloroquine (sigma C6628) and artemisinin (sigma-36, 159-3). Compounds are diluted in DMSO to 1 mM and added to parasite cultures incubated in RPMI 1640 medium without hypoxanthine, supplemented with HEPES (5.94 g/L), NaHCO3 (2.1 g/L), neomycin (100 U/mL), Albumax (5 g/L) and washed human red cells at 2.5% haematocrit (0.3% parasitaemia). Seven serial doubling dilutions of each compound are prepared in 96-well microtitre plates and incubated in a humidifying atmosphere at 37° C.; 4% CO2, 3% O2, 93% N2.
After 48 h, 50 μl of [3H] hypoxanthine (0.5 μCi) is added to each well of a plate. The plates are incubated for a further 24 h under the same conditions. The plates are then harvested with a Betaplate cell harvester (Wallac) and washed with distilled water. The dried filters are inserted into a plastic foil with 10 mL of scintillation fluid, and counted in a Betaplate liquid scintillation counter. IC50 values are calculated from sigmoidal inhibition curves using Microsoft Excel.

| Molecule | IC50 [nM] |
| --- | --- |
| (S)-N-[1-Benzyl-2-oxo-2-(4-phenyl-piperidin-1-yl)-ethyl]-N-(4-pyrimidin-5-yl-benzyl)-3-(6-trifluoromethyl-pyridin-3-yl)-acrylamide [Example 49] | 43 |

Same assay, conditions: Plasmodium falciparum, K1, P. falciparum strain K1; [3H] hypoxanthine incorporation; read-out: IC50 (nM) on K1

| Molecule | IC50 [nM] |
| --- | --- |
| CC(=O)N1CCN(c2ccc(CN(C(=O)C=Cc3ccc(C(F)(F)F)cc3)[C@@H](Cc3ccccc3)C(=O)N(C)CCN(C)Cc3ccc(C)c(F)c3F)cc2)CC1 [Example 251, (S)-N-[4-(4-Acetyl-piperazin-1-yl)-benzyl]-N-[1-({2-[(2,3-difluoro-4-methyl-benzyl)-methyl-amino]-ethyl}-methyl-carbamoyl)-2-phenyl-ethyl]-3-(4-trifluoromethyl-phenyl)-acrylamide] | 53 |
| CC(=O)N1CCN(c2ccc(CN(C(=O)C=Cc3ccc(C(F)(F)F)cc3)[C@@H](Cc3ccccc3)C(=O)N(C)CCN(C)Cc3ccc4c(c3)OCO4)cc2)CC1 [Example 249, (S)-N-[4-(4-Acetyl-piperazin-1-yl)-benzyl]-N-(1-{[2-(benzo[1,3]dioxol-5-ylmethyl-methyl-amino)-ethyl]-methyl-carbamoyl}-2-phenyl-ethyl)-3-(4-trifluoromethyl-phenyl)-acrylamide] | 39 |
| Cc1ccc(C=CC(=O)N(Cc2ccc(-c3ccncc3)cc2)[C@@H](Cc2ccccc2)C(=O)N2CCC(N(C)C)CC2)cn1 [Example 27, (S)-N-[1-Benzyl-2-(4-dimethylamino-piperidin-1-yl)-2-oxo-ethyl]-3-(6-methyl-pyridin-3-yl)-N-(4-pyridin-4-yl-benzyl)-acrylamide] | 67 |
| CN(C)CCNC(=O)[C@H](Cc1ccccc1)N(Cc1ccc(-c2ccccn2)cc1)C(=O)C=Cc1ccc(C(F)(F)F)cc1 [Example 156] | 382 |
| COCCN(C)C(=O)[C@H](Cc1ccccc1)N(Cc1ccc(-c2ccncc2)cc1)C(=O)C=Cc1nc(C)oc1C [Example 97, (S)-3-(2,5-Dimethyl-oxazol-4-yl)-N-{1-[(2-methoxy-ethyl)-methyl-carbamoyl]-2-phenyl-ethyl}-N-(4-pyridin-4-yl-benzyl)-acrylamide] | 15 |
| COCCN(C)C(=O)C(Cn1ccnc1)N(Cc1ccc(-c2ccccn2)cc1)C(=O)C=Cc1ccc(C(F)(F)F)cc1 (racemic) [Example 281] | 448 |
| COCCN(C)C(=O)C(Cc1ccn(C)n1)N(Cc1ccc(-c2ccncc2)cc1)C(=O)C=Cc1ccc(C(F)(F)F)cc1 (racemic) [Example 167] | 41 |
| COCCN(C)C(=O)C(Cn1cccc1)N(Cc1ccc(-c2ccncc2)cc1)C(=O)C=Cc1ccc(C(F)(F)F)cc1 (racemic) [Example 282] | 35 |
| CC(=O)N1CCN(c2ccc(CN(C(=O)C=Cc3ccc(C(F)(F)F)cc3)[C@@H](Cc3ccccc3)C(=O)N(C)CCN(C)Cc3cnc[nH]3)cc2)CC1 [Example 252, (S)-N-[4-(4-Acetyl-piperazin-1-yl)-benzyl]-N-[1-({2-[(3H-imidazol-4-ylmethyl)-methyl-amino]-ethyl}-methyl-carbamoyl)-2-phenyl-ethyl]-3-(4-trifluoromethyl-phenyl)-acrylamide] | 80 |
| COCCN(C)C(=O)[C@H](Cc1ccccc1)N(Cc1ccc(-c2ccncc2)cc1)C(=O)C=Cc1ccc(C(F)(F)F)cn1 [Example 102, (S)-N-{1-[(2-Methoxy-ethyl)-methyl-carbamoyl]-2-phenyl-ethyl}-N-(4-pyridin-4-yl-benzyl)-3-(5-trifluoromethyl-pyridin-2-yl)-acrylamide] | 6 |
| COCCN(C)C(=O)[C@H](Cc1ccccc1)N(Cc1ccc(-c2cncnc2)cc1)C(=O)C=Cc1ccc(Cl)nc1 [Example 128, (S)-3-(6-Chloro-pyridin-3-yl)-N-{1-[(2-methoxy-ethyl)-methyl-carbamoyl]-2-phenyl-ethyl}-N-(4-pyrimidin-5-yl-benzyl)-acrylamide] | 94 |

Further lines, results first:

| IC50 [nM] | Molecule |
| --- | --- |
| 115 | COc1ccc(C=CC(=O)N(Cc2ccc(-c3ccccn3)cc2)[C@@H](Cc2ccccc2)C(=O)N2CCC(N(C)C)CC2)cn1 [Example 16, (S)-N-[1-Benzyl-2-(4-dimethylamino-piperidin-1-yl)-2-oxo-ethyl]-3-(6-methoxy-pyridin-3-yl)-N-(4-pyridin-2-yl-benzyl)-acrylamide] |
| 103 | Cc1noc(C)c1C=CC(=O)N(Cc1ccc(-c2ccncc2)cc1)[C@@H](Cc1ccccc1)C(=O)N1CCC(N(C)C)CC1 [Example 24, (S)-N-[1-Benzyl-2-(4-dimethylamino-piperidin-1-yl)-2-oxo-ethyl]-3-(3,5-dimethyl-isoxazol-4-yl)-N-(4-pyridin-4-yl-benzyl)-acrylamide] |
| 89 | CN(C(=O)[C@H](Cc1ccccc1)N(Cc1ccc(-c2ccccn2)cc1)C(=O)C=Cc1ccc(C(F)(F)F)cc1)[C@H]1CCN(Cc2ccccc2)C1 [Example 172, N-{1-[((S)-1-Benzyl-pyrrolidin-3-yl)-methyl-carbamoyl]-(S)-2-phenyl-ethyl}-N-(4-pyridin-2-yl-benzyl)-3-(4-trifluoromethyl-phenyl)-acrylamide] |
| 86 | CC(=O)N1CCN(c2ccc(CN(C(=O)C=Cc3ccc(C(F)(F)F)nc3)[C@@H](Cc3ccccc3)C(=O)N(C)CCOCc3ccccn3)cc2)CC1 [Example 215, (S)-N-[4-(4-Acetyl-piperazin-1-yl)-benzyl]-N-(1-{methyl-[2-(pyridin-2-ylmethoxy)-ethyl]-carbamoyl}-2-phenyl-ethyl)-3-(6-trifluoromethyl-pyridin-3-yl)-acrylamide] |
| 76 | COCCN(C)C(=O)C(Cc1ccn(C)n1)N(Cc1ccc(-c2ccccn2)cc1)C(=O)C=Cc1ccc(C(F)(F)F)cc1 (racemic) [Example 165] |
| 70 | COCCN(C)C(=O)[C@H](Cc1ccccc1)N(Cc1ccc(N2CCN(C(C)=O)CC2)cc1)C(=O)C=Cc1sc(C)nc1C [Example 107, (S)-N-[4-(4-Acetyl-piperazin-1-yl)-benzyl]-3-(2,4-dimethyl-thiazol-5-yl)-N-{1-[(2-methoxy-ethyl)-methyl-carbamoyl]-2-phenyl-ethyl}-acrylamide] |
| 54 | CN(C)C1CCN(C(=O)[C@H](Cc2ccccc2)N(Cc2ccc(-c3ccccn3)cc2)C(=O)C=Cc2ccc(C(F)(F)F)cc2)CC1 [Example 6, (S)-N-[1-Benzyl-2-(4-dimethylamino-piperidin-1-yl)-2-oxo-ethyl]-N-(4-pyridin-2-yl-benzyl)-3-(4-trifluoromethyl-phenyl)-acrylamide] |
| 53 | CC(=O)N1CCN(c2ccc(CN(C(=O)C=Cc3ccc(C(F)(F)F)cc3)[C@@H](Cc3ccccc3)C(=O)N(C)CCOCc3ccc(OC(F)F)cc3)cc2)CC1 [Example 188, (S)-N-[4-(4-Acetyl-piperazin-1-yl)-benzyl]-N-(1-{[2-(4-difluoromethoxy-benzyloxy)-ethyl]-methyl-carbamoyl}-2-phenyl-ethyl)-3-(4-trifluoromethyl-phenyl)-acrylamide, formic acid] |
| 39 | COc1ccc(CN(C)CCN(C)C(=O)[C@H](Cc2ccccc2)N(Cc2ccc(N3CCOCC3)cc2)C(=O)C=Cc2ccc(C(F)(F)F)cc2)cn1 [Example 264, (S)-N-[1-({2-[(6-Methoxy-pyridin-3-ylmethyl)-methyl-amino]-ethyl}-methyl-carbamoyl)-2-phenyl-ethyl]-N-(4-morpholin-4-yl-benzyl)-3-(4-trifluoromethyl-phenyl)-acrylamide] |
| 33 | COCCN(C)C(=O)[C@H](Cc1ccccc1)N(Cc1ccc(-c2ccncc2)cc1)C(=O)C=Cc1cc(C)on1 [Example 95, (S)-N-{1-[(2-Methoxy-ethyl)-methyl-carbamoyl]-2-phenyl-ethyl}-3-(5-methyl-isoxazol-3-yl)-N-(4-pyridin-4-yl-benzyl)-acrylamide] |
| 29 | CN(CCN(C)C(=O)[C@H](Cc1ccccc1)N(Cc1ccc(-c2ccccn2)cc1)C(=O)C=Cc1ccc(C(F)(F)F)cc1)Cc1ccccc1 [Example 220, (S)-N-(1-{[2-(Benzyl-methyl-amino)-ethyl]-methyl-carbamoyl}-2-phenyl-ethyl)-N-(4-pyridin-2-yl-benzyl)-3-(4-trifluoromethyl-phenyl)-acrylamide] |
| 19 | COCCN(C)C(=O)[C@H](Cc1ccccc1)N(Cc1ccc(-c2cncnc2)cc1)C(=O)C=Cc1cnc(OC)nc1 [Example 129, (S)-N-{1-[(2-Methoxy-ethyl)-methyl-carbamoyl]-2-phenyl-ethyl}-3-(2-methoxy-pyrimidin-5-yl)-N-(4-pyrimidin-5-yl-benzyl)-acrylamide] |
| 17 | COCCN(C)C(=O)[C@H](Cc1ccccc1)N(Cc1ccc(-c2ccncc2)cc1)C(=O)C=Cc1ccc(Cl)nc1 [Example 99, (S)-3-(6-Chloro-pyridin-3-yl)-N-{1-[(2-methoxy-ethyl)-methyl-carbamoyl]-2-phenyl-ethyl}-N-(4-pyridin-4-yl-benzyl)-acrylamide] |
| 9 | COCCN(C)C(=O)[C@H](Cc1ccccc1)N(Cc1ccc(N2CCOCC2)cc1)C(=O)C=Cc1ccc(C(F)(F)F)cc1 [Example 179, (S)-N-{1-[(2-Methoxy-ethyl)-methyl-carbamoyl]-2-phenyl-ethyl}-N-(4-morpholin-4-yl-benzyl)-3-(4-trifluoromethyl-phenyl)-acrylamide, formic acid] |
